Activity calls are given as the source filed them.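 How the source made its calls: active means compounds that block purified firefly luciferase enzyme with half-maximal potency below 20 µM; inactive means the rest.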
Biological target: Luciferin 4-monooxygenase (Photinus pyralis) (UniProt P08659)
Test: firefly luciferase inhibitors or activators, profiling panel, counter-screen for EBNA-1 inhibitor project, biochemical, qHTS, purified enzyme, Km substrates, luminescence (AID 588498)
Conditions: purified FLuc

Luciferin 4-monooxygenase (Photinus pyralis), sequence (P08659 whole entry, looked up): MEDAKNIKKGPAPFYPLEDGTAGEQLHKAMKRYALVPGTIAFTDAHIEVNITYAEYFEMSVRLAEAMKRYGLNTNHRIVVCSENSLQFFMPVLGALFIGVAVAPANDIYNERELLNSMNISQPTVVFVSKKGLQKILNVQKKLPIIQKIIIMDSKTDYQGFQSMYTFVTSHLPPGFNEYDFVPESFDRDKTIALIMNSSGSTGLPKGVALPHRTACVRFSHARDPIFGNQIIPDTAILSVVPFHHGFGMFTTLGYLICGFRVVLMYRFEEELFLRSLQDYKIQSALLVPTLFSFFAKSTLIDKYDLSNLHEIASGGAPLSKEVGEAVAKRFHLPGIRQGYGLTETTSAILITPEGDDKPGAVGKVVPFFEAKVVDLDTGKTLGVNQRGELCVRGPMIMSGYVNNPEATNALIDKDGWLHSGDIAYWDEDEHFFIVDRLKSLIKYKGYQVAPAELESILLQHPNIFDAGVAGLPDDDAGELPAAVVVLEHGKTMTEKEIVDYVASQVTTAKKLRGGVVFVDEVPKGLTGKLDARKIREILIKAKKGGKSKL

AC50	SMILES
> 30 µM (inactive)	Cc1ccccc1NC(=O)c1nnn(Cc2cccc(Cl)c2)c1N
4.11 µM	COc1cccc(Cn2nnc(C(=O)Nc3ccc4c(c3)OCCO4)c2N)c1
6.51 µM	Cc1ccccc1C(=O)Nc1nc2ccc(S(C)(=O)=O)cc2s1
5.8 µM	Cc1ccc(C(=O)Nc2nc3ccc(S(C)(=O)=O)cc3s2)cc1C
2.59 µM	COc1ccc(C(=O)Nc2nc3ccc(S(C)(=O)=O)cc3s2)cc1
3.26 µM	Nc1c(C(=O)Nc2ccc3c(c2)OCCO3)nnn1Cc1cccc(Cl)c1

Second part, the molecule before the results:

SMILES	AC50
Nc1c(C(=O)Nc2cccc(C(F)(F)F)c2)nnn1Cc1cccc(Cl)c1	> 30 µM (inactive)
Cc1ccc(C(=O)Nc2nc3ccc(S(C)(=O)=O)cc3s2)cc1	1.83 µM
Cc1ccccc1-n1nnnc1SCC(=O)c1cc(C)n(CC2CCCO2)c1C (centres undefined)	2.91 µM
Cc1cccc(-n2nnnc2SCC(=O)c2cc(C)n(CC3CCCO3)c2C)c1 (centres undefined)	18.3 µM
Nc1c(C(=O)Nc2ccc3c(c2)OCCO3)nnn1Cc1cccc(C(F)(F)F)c1	20.6 µM
Cc1cc(C(=O)CSc2nnnn2-c2ccccc2)c(C)n1CC1CCCO1 (centres undefined)	2.06 µM
CS(=O)(=O)c1ccc2nc(NC(=O)c3cccc(F)c3)sc2c1	0.366 µM
Cc1cccc(C(=O)Nc2nc3ccc(S(C)(=O)=O)cc3s2)c1	2.91 µM
CS(=O)(=O)c1ccc2nc(NC(=O)c3ccccc3Cl)sc2c1	3.26 µM
COc1ccc2nc(NC(=O)c3ccc(C)c(C)c3)sc2c1	0.651 µM
COCCn1c(C)cc(C(=O)CSc2nnnn2-c2ccccc2)c1C	1.63 µM
Cc1ccc(-n2nnnc2SCC(=O)c2cc(C)n(CC3CCCO3)c2C)cc1 (centres undefined)	6.51 µM
COc1ccc(Cn2nnc(C(=O)Nc3ccc4c(c3)OCCO4)c2N)cc1	2.91 µM

From PubChem BioAssay AID588498 (Molecular Libraries Program, Specialized Chemistry Center, …, 2011)
